# Measured values taken from paper PMC9023544, “Ketone-selenoesters as potential anticancer and multidrug resistance modulation agents in 2D and 3D ovarian and breast cancer in vitro models” (Scientific Reports, 2022).
# Tested on: ABC superfamily genes in MCF-7/PAX
# Test: Expression of genes encoding ABC transporters, qPCR
# Assay type: cell-based, human
# Protocol: Based on the fact that compounds K3, K4, K7 sensitized drug-resistant cell lines (HOC/ADR, MCF-7/PAX) and modulated ATPase activity of one from the ABC proteins (P-gp), we verified the potential of these compounds to affect ABC superfamily gene expression. The ovarian and breast cancer cell lines (parental cells and resistant sub-line) were analysed for the expression profile of genes encoding the ABC proteins in the previous works[18]–[20]. […] After 48 h, the effect of compounds alone or in the combination with cytostatics was observed (Supplementary Tables 1, Table 2).
# To determine the impact of selected compounds on the expression of genes encoding ABC transporter, HOC/ADR and MCF-7/PAX cells were seeded for 24 h into 5 cm Petri dishes with DMEM medium at the cell density 1 × 10^5 cells/mL. Afterwards, the cells were washed 1× with PBS and new fresh DMEM supplemented with K3, K4, and K7 (in concentration corresponding to their IC10 value) alone or combined with cytostatics (Adriamycin or paclitaxel in concentration corresponding to their IC25 value) was added. In the experiment, positive and negative control was also included (positive—untreated cells, negative—cells treated only with cytostatics). After 48 h exposure, the cells were washed once with PBS and released from the surface by using the above-mentioned trypsin–EDTA procedure. The enzyme reaction was stopped by medium addition and the cells were centrifuged (3200×g; 10 min, 4 °C). The supernatants were removed and before the next centrifugation, the pellets were resuspended in 1.5 mL of cooled PBS (5400×g; 10 min, 4 °C). After the second washing step, the cells were centrifuged another time (10,000×g; 3 min, 4 °C). Subsequently, 1 mL of Trizol (Invitrogen) was added to the pellets and the compounds were stored − 80 °C.
# The RNA concentration of selenoester treated samples was determined using QuantiT RiboGreen RNA Assay Kit and Infinite M200 plate reader (Tecan, Männedor, Switzerland). The cDNA was synthesized from 0.5 µg of total RNA by RevertAid First Strand Synthesis cDNA Kit (MBI Fermentas, Vilnius, Lithuania). To determine the quality of cDNA, the ubiquitin C gene fragment was amplified. The experiment was performed in 384-well block by using ViiA7 Real-Time PCR System (Life Technologies, Camarillo, California, United States). A master mix contained 0.25 µL of 20× TaqMan Gene Expression Assay, 1 µL of 5× HotFIREPol Probe qPCR Mix Plus, 1.75 µL of RNase free water and 2 µL of 8× diluted cDNA. The final reaction volume was 5 µL. The PCR parameters were as follows: initial hold (50 °C for 2 min), denaturation (95 °C for 10 min), followed by 45 cycles (denaturation at 95 °C for 15 s, annealing at 60 °C for 1 min). After each cycle, the fluorescent signal was determined. For each compound, duplicates were analysed and those with a standard deviation higher than 0.5 Ct were re-analysed. A quantitate real-time PCR was followed by MIQE guidelines. To compare the relative transcript levels of genes, the software REST 2009 (Qiagen, Hilden, Germany) was used.
# Table 2. Effect of selenoesters either on the expression of the ABC gene superfamily in paclitaxel-resistant breast cancer cell line (MCF-7/PAX).
# Gene expression of ABC transporters were estimated using comercial predesigned Taqman Gene Expression Assays (Life technologies). TaqMan Gene Expression Assays are based on 5´ nuclease chemistry, and each assay contains the primer and probe set for target of interest. Taqman assays IDs and GenBank Accession numbers of reference sequencies identifying their location and amplicon lengths are included in the Supplementary Table I. * Relative transcript levels (P-value ) in treated and non-treated cancer cell lines were compared using REST 2009 software.
compound,measurement,setting,value
CC(=O)C[Se]C(=O)c1ccccc1C(F)(F)F [K4],number of ABC genes with altered expression,,31
same,ABCA2 Expression Difference,"IC10 alone, 48 h",0.282
same,ABCA2 Treated vs. Untr.,"IC10 alone, 48 h",DOWN
same,ABCA3 Expression Difference,"IC10 alone, 48 h",0.766
same,ABCA3 Treated vs. Untr.,"IC10 alone, 48 h",DOWN
same,ABCA4 Expression Difference,"IC10 alone, 48 h",40.43
same,ABCA5 Expression Difference,"IC10 alone, 48 h",0.789
same,ABCA5 Treated vs. Untr.,"IC10 alone, 48 h",DOWN
same,ABCA7 Expression Difference,"IC10 alone, 48 h",0.757
same,ABCA7 Treated vs. Untr.,"IC10 alone, 48 h",DOWN
same,ABCA12 Expression Difference,"IC10 alone, 48 h",1.702
same,ABCB1 Expression Difference,"IC10 alone, 48 h",0.568
same,ABCB1 Treated vs. Untr.,"IC10 alone, 48 h",DOWN
same,ABCB2 Expression Difference,"IC10 alone, 48 h",0.467
same,ABCB2 Treated vs. Untr.,"IC10 alone, 48 h",DOWN
same,ABCB3 Expression Difference,"IC10 alone, 48 h",0.323
same,ABCB3 Treated vs. Untr.,"IC10 alone, 48 h",DOWN
same,ABCB6 Expression Difference,"IC10 alone, 48 h",0.524
same,ABCB6 Treated vs. Untr.,"IC10 alone, 48 h",DOWN
same,ABCB7 Expression Difference,"IC10 alone, 48 h",0.214
same,ABCB7 Treated vs. Untr.,"IC10 alone, 48 h",DOWN
same,ABCB8 Expression Difference,"IC10 alone, 48 h",0.683
same,ABCB8 Treated vs. Untr.,"IC10 alone, 48 h",DOWN
same,ABCB9 Expression Difference,"IC10 alone, 48 h",0.639
same,ABCB9 Treated vs. Untr.,"IC10 alone, 48 h",DOWN
same,ABCB10 Expression Difference,"IC10 alone, 48 h",1.163
same,ABCC1 Expression Difference,"IC10 alone, 48 h",0.398
same,ABCC1 Treated vs. Untr.,"IC10 alone, 48 h",DOWN
same,ABCC2 Expression Difference,"IC10 alone, 48 h",0.127
same,ABCC2 Treated vs. Untr.,"IC10 alone, 48 h",DOWN
same,ABCC3 Expression Difference,"IC10 alone, 48 h",26.21
same,ABCC4 Expression Difference,"IC10 alone, 48 h",0.316
same,ABCC4 Treated vs. Untr.,"IC10 alone, 48 h",DOWN
same,ABCC5 Expression Difference,"IC10 alone, 48 h",1.378
same,ABCC6 Expression Difference,"IC10 alone, 48 h",2.041
same,ABCC8 Expression Difference,"IC10 alone, 48 h",1.590
same,ABCC10 Expression Difference,"IC10 alone, 48 h",0.265
same,ABCC10 Treated vs. Untr.,"IC10 alone, 48 h",DOWN
same,ABCD1 Expression Difference,"IC10 alone, 48 h",0.179
same,ABCD1 Treated vs. Untr.,"IC10 alone, 48 h",DOWN
same,ABCD3 Expression Difference,"IC10 alone, 48 h",0.365
same,ABCD3 Treated vs. Untr.,"IC10 alone, 48 h",DOWN
same,ABCD4 Expression Difference,"IC10 alone, 48 h",1.288
same,ABCE1 Expression Difference,"IC10 alone, 48 h",0.795
same,ABCE1 Treated vs. Untr.,"IC10 alone, 48 h",DOWN
same,ABCF1 Expression Difference,"IC10 alone, 48 h",3.646
same,ABCF2 Expression Difference,"IC10 alone, 48 h",0.942
same,ABCF3 Expression Difference,"IC10 alone, 48 h",0.753
same,ABCF3 Treated vs. Untr.,"IC10 alone, 48 h",DOWN
same,ABCG1 Expression Difference,"IC10 alone, 48 h",0.325
same,ABCG1 Treated vs. Untr.,"IC10 alone, 48 h",DOWN
same,ABCG2 Expression Difference,"IC10 alone, 48 h",0.378
same,ABCG2 Treated vs. Untr.,"IC10 alone, 48 h",DOWN
same,ABCG4 Expression Difference,"IC10 alone, 48 h",0.412
same,ABCG4 Treated vs. Untr.,"IC10 alone, 48 h",DOWN
same,decrease of expression of ABCB1 (P-gp) encoding gene,"IC10 alone, 48 h",43%
same,downregulation of expression of ABCC1 (MRP1),"IC10 alone, 48 h",60%
same,downregulation of expression of ABCG2,"IC10 alone, 48 h",62%
CC(=O)C[Se]C(=O)c1ccc(C(C)(C)C)cc1 [K7],number of ABC genes with altered expression,,32
same,ABCA2 Expression Difference,"IC10 alone, 48 h",0.159
same,ABCA2 Treated vs. Untr.,"IC10 alone, 48 h",DOWN
same,ABCA3 Expression Difference,"IC10 alone, 48 h",0.376
same,ABCA3 Treated vs. Untr.,"IC10 alone, 48 h",DOWN
same,ABCA4 Expression Difference,"IC10 alone, 48 h",20.68
same,ABCA5 Expression Difference,"IC10 alone, 48 h",0.600
same,ABCA5 Treated vs. Untr.,"IC10 alone, 48 h",DOWN
same,ABCA7 Expression Difference,"IC10 alone, 48 h",0.384
same,ABCA7 Treated vs. Untr.,"IC10 alone, 48 h",DOWN
same,ABCA12 Expression Difference,"IC10 alone, 48 h",0.745
same,ABCA12 Treated vs. Untr.,"IC10 alone, 48 h",DOWN
same,ABCB1 Expression Difference,"IC10 alone, 48 h",0.361
same,ABCB1 Treated vs. Untr.,"IC10 alone, 48 h",DOWN
same,ABCB2 Expression Difference,"IC10 alone, 48 h",0.274
same,ABCB2 Treated vs. Untr.,"IC10 alone, 48 h",DOWN
same,ABCB3 Expression Difference,"IC10 alone, 48 h",0.164
same,ABCB3 Treated vs. Untr.,"IC10 alone, 48 h",DOWN
same,ABCB6 Expression Difference,"IC10 alone, 48 h",0.305
same,ABCB6 Treated vs. Untr.,"IC10 alone, 48 h",DOWN
same,ABCB7 Expression Difference,"IC10 alone, 48 h",0.131
same,ABCB7 Treated vs. Untr.,"IC10 alone, 48 h",DOWN
same,ABCB8 Expression Difference,"IC10 alone, 48 h",0.407
same,ABCB8 Treated vs. Untr.,"IC10 alone, 48 h",DOWN
same,ABCB9 Expression Difference,"IC10 alone, 48 h",0.340
same,ABCB9 Treated vs. Untr.,"IC10 alone, 48 h",DOWN
same,ABCB10 Expression Difference,"IC10 alone, 48 h",0.822
same,ABCB10 Treated vs. Untr.,"IC10 alone, 48 h",DOWN
same,ABCC1 Expression Difference,"IC10 alone, 48 h",0.238
same,ABCC1 Treated vs. Untr.,"IC10 alone, 48 h",DOWN
same,ABCC2 Expression Difference,"IC10 alone, 48 h",0.061
same,ABCC2 Treated vs. Untr.,"IC10 alone, 48 h",DOWN
same,ABCC3 Expression Difference,"IC10 alone, 48 h",15.69
same,ABCC4 Expression Difference,"IC10 alone, 48 h",0.213
same,ABCC4 Treated vs. Untr.,"IC10 alone, 48 h",DOWN
same,ABCC5 Expression Difference,"IC10 alone, 48 h",0.933
same,ABCC5 Treated vs. Untr.,"IC10 alone, 48 h",DOWN
same,ABCC6 Expression Difference,"IC10 alone, 48 h",0.424
same,ABCC6 Treated vs. Untr.,"IC10 alone, 48 h",DOWN
same,ABCC8 Expression Difference,"IC10 alone, 48 h",0.651
same,ABCC8 Treated vs. Untr.,"IC10 alone, 48 h",DOWN
same,ABCC10 Expression Difference,"IC10 alone, 48 h",0.170
same,ABCC10 Treated vs. Untr.,"IC10 alone, 48 h",DOWN
same,ABCD1 Expression Difference,"IC10 alone, 48 h",0.104
same,ABCD1 Treated vs. Untr.,"IC10 alone, 48 h",DOWN
same,ABCD3 Expression Difference,"IC10 alone, 48 h",0.247
same,ABCD3 Treated vs. Untr.,"IC10 alone, 48 h",DOWN
same,ABCD4 Expression Difference,"IC10 alone, 48 h",0.872
same,ABCD4 Treated vs. Untr.,"IC10 alone, 48 h",DOWN
same,ABCE1 Expression Difference,"IC10 alone, 48 h",0.505
same,ABCE1 Treated vs. Untr.,"IC10 alone, 48 h",DOWN
same,ABCF1 Expression Difference,"IC10 alone, 48 h",2.263
same,ABCF2 Expression Difference,"IC10 alone, 48 h",0.601
same,ABCF2 Treated vs. Untr.,"IC10 alone, 48 h",DOWN
same,ABCF3 Expression Difference,"IC10 alone, 48 h",0.484
same,ABCF3 Treated vs. Untr.,"IC10 alone, 48 h",DOWN
same,ABCG1 Expression Difference,"IC10 alone, 48 h",0.307
same,ABCG1 Treated vs. Untr.,"IC10 alone, 48 h",DOWN
same,ABCG2 Expression Difference,"IC10 alone, 48 h",0.207
same,ABCG2 Treated vs. Untr.,"IC10 alone, 48 h",DOWN
same,ABCG4 Expression Difference,"IC10 alone, 48 h",0.188
same,ABCG4 Treated vs. Untr.,"IC10 alone, 48 h",DOWN
same,decrease of expression of ABCB1 (P-gp) encoding gene,"IC10 alone, 48 h",64%
same,downregulation of expression of ABCC1 (MRP1),"IC10 alone, 48 h",76%
same,downregulation of expression of ABCG2,"IC10 alone, 48 h",80%
